Among the data in patent US12551564B2, “IRAK degraders and uses thereof” (Kymera Therapeutics, Inc., priority 2019, dated 2026) are IC50 and DC50 values, retold here.

Molecules are shown by their SMILES. Where two headings read alike, the source gives them in different places.

The subject of one assay is OCI-LY10. The experiment in a line: CTG Cell Viability Assay - OCI-LY10 (CellTiter-Glo). The note with it: Homo sapiens, 96 h; OCI-LY10 cells, 4 days incubation; read-out: CTG Cell Viability Assay-OCI-LY100: Average external-IC50. It counts as cell-based. On the procedure: Cell viability assay with OCI-LY10 and TMD8
Compound-mediated viability effect on OCI-LY10 or TMD8 were quantitatively determined using the CellTiter-Glo® Luminescent Cell Viability Assay kit from Promega (Catalog number G7570) following manufacturer's recommended procedures. Briefly, OCI-LY10 or TMD8 cells is seeded into 384 well plates (Grenier Bio-One, Catalog number 781080) with a density of 10,000 cells per well. Compounds were then added to the assay plate with final top concentration of 10 μM and 1:3 dilution series with total of 9 doses. The final DMSO concentration was normalized to 0.2%. The assay plates were incubated at 37° C. for 4 days under 5% CO2. Then the assay plate was equilibrated at room temperature for 10 minutes. To determine cell viability, 30 μL CellTiter Glo reagent was added to each well and the assay plate was centrifuged at 1000 rpm for 30 second, incubated at room temperature for 10 min, and analyzed by detecting the luminescence using a multimode plate reader (EnVision 2105, PerkinElmer). The data was then analyzed by software Prism 7.0 from GraphPad and the dose response curves were fit using a three-parameter logistic equation to calculate IC50.

The next assay concerns the target T1, IRAK4 (Homo sapiens, UniProt Q9NWZ3).
T1 construct: endogenous in cells; host or cells: OCI-LY10
T1 sequence (Q9NWZ3 1-460): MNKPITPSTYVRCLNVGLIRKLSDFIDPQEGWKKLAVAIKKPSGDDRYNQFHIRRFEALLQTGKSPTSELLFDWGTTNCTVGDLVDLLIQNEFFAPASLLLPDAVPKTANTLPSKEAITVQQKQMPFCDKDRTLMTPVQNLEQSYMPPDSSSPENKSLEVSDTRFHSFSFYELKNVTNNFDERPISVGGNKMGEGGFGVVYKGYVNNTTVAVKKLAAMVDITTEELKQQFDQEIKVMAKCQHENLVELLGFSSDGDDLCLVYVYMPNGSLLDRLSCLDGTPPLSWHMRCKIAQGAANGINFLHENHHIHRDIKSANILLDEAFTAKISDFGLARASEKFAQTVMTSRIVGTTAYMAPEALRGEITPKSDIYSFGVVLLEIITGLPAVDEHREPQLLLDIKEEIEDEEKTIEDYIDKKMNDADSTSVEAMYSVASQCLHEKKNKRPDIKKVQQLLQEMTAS
As to the kind of experiment: IRAK4 degradation in OCI-LY10 (MSD). In kind it is cell-based. The note with it: OCI-LY10 cells. As to the method: IRAK4 degradation in OCI-LY10 (MSD)
Degradation of IRAK4 in OCI-LY10 was quantitatively measured using Meso Scale Discovery technology. OCI-LY10 cells were seeded in 96-well plates (Corning 3799) with a density of 300,000 cells per well in 100 μL fresh media. Compounds were then added to the assay plates with a final top concentration of 1 to 10 μM in a 1:3 dilution series with total of 8 doses. The assay plates were then incubated for 4 to 24 hours at 37° C. under 5% CO2. The assay plates were then centrifuged for 5 minutes and the cell pellets were treated with 100 μL/well RIPA lysis buffer (Boston BioProducts BP-115D) with proteinase inhibitors. To prepare MSD assay plates (Meso Scale Discovery Catalog number L15XA-3), the plates were coated with 2 μg/mL capture antibody (mouse Anti-IRAK4 antibody [2H9], ab119942) in PBS, at 40 μL/well. The plates were then incubated overnight at 4° C., washed 3 times with 150 μL/well TBST buffer (Cell Signaling Technology, Catalog number 9997S) and blocked with 150 μL well blocking buffer (Meso Scale Discovery Catalog number R93BA-4). Cell lysates were then added to MSD assay plates and the plates were incubated at room temperature for 1 hour. The plates were then washed 3 times with 150 μL/well TBST buffer and 25 μL/well primary detection antibody (rabbit Anti-IRAK4 antibody [Y279], from Abcam. Catalog number ab32511, 1 μg/mL). The assay plates were then incubated at room temperature for 1 hour, washed 3 times with 150 TBST buffer and 25A/well secondary detection antibody, SULFO-TAG anti-rabbit antibody were added (anti rabbit antibody from Meso Scale Discovery, Catalog number R32AB-1, 1 μg/mL). The assay plates were then incubated at room temperature for 1 hour, washed 3 times with 150 TBST buffer, and 150 MSD reading buffer (Meso Scale Discovery catalog number R92TC-2) was added. The plates were then analyzed by a MSD reader (Meso Scale Discovery, Model Quick Plex SQ 120). The data was then analyzed by software Prism 7.0 from GraphPad and the dose-depended IRAK4 degradation were fit using a three-parameter logistic equation to calculate DC50.

[1] abbreviates: 24 hrs incubation, read-out: IRAK4 MSD degradation in OCI-LY10 at 24 hrs: Average external-Abs DC50.
The mark [2] stands for this setting: 4 hrs incubation, read-out: IRAK4 MSD degradation in OCI-LY10 at 4 hrs: Average external-Abs DC50.

Usually IC50 stands for the concentration needed to halve the response being measured. For orientation: DC50 means the midpoint of the concentration-degradation curve. Turning to `CN(CCCCOc1ccc(Oc2ccc(N(Cc3ccccc3)C(=O)CCl)cc2)cc1)C[C@H]1CC[C@H](n2cc(N(C)C(=O)c3coc(-c4ccnc(NCC5CC5)c4)n3)c(C(F)F)n2)CC1` [I-12], the concentration for half-maximal inhibition (IC50) with OCI-LY10 fell in the range of 500 to 1000 nM. Moreover, the half-maximal degradation concentration (DC50) on IRAK4 (setting [1]) was above 1000 nM.
Consider `COCC(=O)N1CCCc2cc(OCC(=O)NCCCCCN(C)C[C@H]3CC[C@H](n4cc(NC(=O)c5coc(-c6ccnc(NCC7CC7)c6)n5)c(C(F)F)n4)CC3)ccc21` [I-9, 2-[2-(cyclopropylmethylamino)-4-pyridyl]-N-[3-(difluoromethyl)-1-[4-[[5-[[2-[[1-(2-methoxyacetyl)-3,4-dihydro-2H-quinolin-6-yl]oxy]acetyl]amino]pentyl-methyl-amino]methyl]cyclohexyl]pyrazol-4-yl]oxazole-4-carboxamide], for which the IC50 in the assay on OCI-LY10 was above 1000 nM. In addition, the DC50 at IRAK4 (setting [2]) and on IRAK4 (setting [1]) was above 1000 nM in each case.
Turning to `CN(CCCCCNC(=O)COc1ccc2c(c1)CCCN2C(=O)CCl)C[C@H]1CC[C@H](n2cc(NC(=O)c3coc(-c4ccnc(NCC5CC5)c4)n3)c(C(F)F)n2)CC1` [I-2], the IC50 in the assay on OCI-LY10 is above 1000 nM. For the same compound, the half-maximal degradation concentration (DC50) at IRAK4 (setting [2]) and on IRAK4 (setting [1]) was above 1000 nM each time.
`CN(CCCNC(=O)COc1ccc2c(c1)CCCN2C(=O)CCl)C[C@H]1CC[C@H](n2cc(NC(=O)c3coc(-c4ccnc(NCC5CC5)c4)n3)c(C(F)F)n2)CC1` [I-1, N-(1-((1r,4r)-4-(((3-(2-((1-(2-chloroacetyl)-1,2,3,4-tetrahydroquinolin-6-yl)oxy)acetamido)propyl)(methyl)amino)methyl)cyclohexyl)-3-(difluoromethyl)-1H-pyrazol-4-yl)-2-(2-((cyclopropylmethyl)amino)pyridin-4-yl)oxazole-4-carboxamide]: the IC50 with OCI-LY10 was above 1000 nM. Moreover, the DC50 on IRAK4 (setting [2]) and on IRAK4 (setting [1]) was above 1000 nM in each case.
For the compound `CN(CCCCCCCNC(=O)COc1ccc2c(c1)CCCN2C(=O)CCl)C[C@H]1CC[C@H](n2cc(NC(=O)c3coc(-c4ccnc(NCC5CC5)c4)n3)c(C(F)F)n2)CC1` [I-3], in the assay with OCI-LY10, the IC50 was above 1000 nM. Also, the DC50 on IRAK4 (setting [2]) and on IRAK4 (setting [1]) was above 1000 nM in each case.
In the case of `CN(CCCCCCCCCNC(=O)COc1ccc2c(c1)CCCN2C(=O)CCl)C[C@H]1CC[C@H](n2cc(NC(=O)c3coc(-c4ccnc(NCC5CC5)c4)n3)c(C(F)F)n2)CC1` [I-4], the concentration for half-maximal inhibition (IC50) in the assay with OCI-LY10 is above 1000 nM. For the same compound, the DC50 on IRAK4 (setting [1]) was above 1000 nM.
On to `COCC(=O)N(Cc1ccccc1)c1ccc(Oc2ccc(OCCCCN(C)C[C@H]3CC[C@H](n4cc(NC(=O)c5coc(-c6ccnc(NCC7CC7)c6)n5)c(C(F)F)n4)CC3)cc2)cc1` [I-11], for which, in the assay on OCI-LY10, the IC50 was in the range of 500 to 1000 nM. Besides, the DC50 at IRAK4 (setting [1]) was above 1000 nM.
Regarding `CN(CCCCCCCCCCOc1ccc(Oc2ccc(N(Cc3ccccc3)C(=O)CCl)cc2)cc1)C[C@H]1CC[C@H](n2cc(NC(=O)c3coc(-c4ccnc(NCC5CC5)c4)n3)c(C(F)F)n2)CC1` [I-8, N-(1-((1r,4r)-4-(((10-(4-(4-(N-benzyl-2-chloroacetamido)phenoxy)phenoxy)decyl)(methyl)amino)methyl)cyclohexyl)-3-(difluoromethyl)-1H-pyrazol-4-yl)-2-(2-((cyclopropylmethyl)amino)pyridin-4-yl)oxazole-4-carboxamide], the concentration for half-maximal inhibition (IC50) in the assay on OCI-LY10 fell in the range of 500 to 1000 nM. For the same compound, the DC50 on IRAK4 (setting [2]) was above 1000 nM; on IRAK4 (setting [1]), 100 to 1000 nM.
The like results for `CN(CCCCCCCCOc1ccc(Oc2ccc(N(Cc3ccccc3)C(=O)CCl)cc2)cc1)C[C@H]1CC[C@H](n2cc(NC(=O)c3coc(-c4ccnc(NCC5CC5)c4)n3)c(C(F)F)n2)CC1` [I-7] were, in that order, 500 to 1000 nM, above 1000 nM and 100 to 1000 nM.
The like results for `CN(CCCCOc1ccc(Oc2ccc(N(Cc3ccccc3)C(=O)CCl)cc2)cc1)C[C@H]1CC[C@H](n2cc(NC(=O)c3coc(-c4ccnc(NCC5CC5)c4)n3)c(C(F)F)n2)CC1` [I-5] were, in that order, above 1000 nM, above 1000 nM and above 1000 nM.
The like results for `CN(CCCCCCOc1ccc(Oc2ccc(N(Cc3ccccc3)C(=O)CCl)cc2)cc1)C[C@H]1CC[C@H](n2cc(NC(=O)c3coc(-c4ccnc(NCC5CC5)c4)n3)c(C(F)F)n2)CC1` [I-6] were, in that order, 500 to 1000 nM, above 1000 nM and above 1000 nM.
